Results on two molecules are retold here after patent publication US7538101B2, “1,1-dioxo-thiomorpholinyl indolyl methanone derivatives” (Hoffmann-La Roche Inc., priority 2005, dated 2009).

Each structure is given as a SMILES string.

The experiment concerns the target T1, histamine 3 receptor (H3R) (Homo sapiens, UniProt Q9Y5N1).
T1 construct: expressed in transfected cells; host or cells: CHO cells (HR3-CHO cell line), membrane preparation
As to the kind of experiment: Binding assay with 3H-(R)α-methylhistamine (competition binding, membranes of the human HR3-CHO cell line). The settings on record: membrane of human HR3-CHO cell line; 3H(R)α-Methylhistamine 1 nM; Ki calculated from IC50 by Cheng-Prusoff equation. How it is done: Binding Assay with ^3H—(R)α-methylhistamine
Saturation binding experiments were performed using HR3-CHO membranes prepared as described in Takahashi, K, Tokita, S., Kotani, H. (2003) J. Pharmacol. Exp. Therapeutics 307, 213-218.
An appropriate amount of membrane (60 to 80 μg protein/well) was incubated with increasing concentrations of ^3H(R)α-Methylhistamine di-hydrochloride (0.10 to 10 nM). Non specific binding was determined using a 200 fold excess of cold (R)α-Methylhistamine dihydrobromide (500 nM final concentration). The incubation was carried out at room temperature (in deep-well plates shaking for three hours). The final volume in each well was 250 μl. The incubation was followed by rapid filtration on GF/B filters (pre-soaked with 100 μl of 0.5% PEI in Tris 50 mM shaking at 200 rpm for two hours). […] After harvesting, the plates were dried at 55° C. for 60 min, then we added scintillation fluid (Microscint 40, 40 microl in each well) and the amount of radioactivity on the filter was determined in Packard top-counter after shaking the plates for two hours at 200 rpm at room temperature. […]
All compounds were tested at a single concentration in duplicates. […] Ki's were calculated from IC50 based on Cheng-Prusoff equation (Cheng, Y, Prusoff, W H (1973) Biochem Pharmacol 22, 3099-3108).

T1 sequence (Q9Y5N1 whole entry): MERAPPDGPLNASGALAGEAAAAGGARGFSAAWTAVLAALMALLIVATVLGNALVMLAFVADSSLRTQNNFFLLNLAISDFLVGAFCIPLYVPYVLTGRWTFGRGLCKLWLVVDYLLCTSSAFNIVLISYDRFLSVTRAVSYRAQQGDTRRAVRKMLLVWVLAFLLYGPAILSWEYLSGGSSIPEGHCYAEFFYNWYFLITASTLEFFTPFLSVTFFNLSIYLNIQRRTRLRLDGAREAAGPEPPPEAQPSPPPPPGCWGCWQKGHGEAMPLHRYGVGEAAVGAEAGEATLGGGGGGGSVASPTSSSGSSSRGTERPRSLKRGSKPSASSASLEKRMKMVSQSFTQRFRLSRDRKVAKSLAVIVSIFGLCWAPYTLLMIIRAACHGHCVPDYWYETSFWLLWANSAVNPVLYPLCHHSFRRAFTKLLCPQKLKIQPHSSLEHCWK

As for `CC(C)N1CCC(Oc2ccc3c(c2)cc(C(=O)N2CCS(=O)(=O)CC2)n3CC(F)(F)F)CC1` [Example 1, (1,1-Dioxo-thiomorpholin-4-yl)-[5-(1-isopropyl-piperidin-4-yloxy)-1-(2,2,2-trifluoro-ethyl)-1H-indol-2-yl]-methanone], the Ki was 3 nM.

As for `CC(C)N1CC[C@H](Oc2ccc3[nH]c(C(=O)N4CCS(=O)(=O)CC4)cc3c2)C1` [Example 4, (1,1-Dioxo-thiomorpholin-4-yl)-[5-(1-isopropyl-pyrrolidin-3S-yloxy)-1H-indol-2-yl]-methanone], the inhibitory constant (Ki) is 49 nM.

By Ki is commonly meant a dissociation constant, usually derived from enzyme kinetics or from competition with a known ligand.
